Source: US9113629B2, “4-amino-6-(4-substituted-phenyl)-picolinates and 6-amino-2-(4-substituted-phenyl)-pyrimidine-4-carboxylates and their use as herbicides” (DOW AGROSCIENCES LLC, priority 2013, dated 2015)
Where two headings read alike, the source gives them in different places.

Experiments:
[1] = test system: Key Broadleaf Weed and Crop Species; experiment: Post-emergent Test II herbicidal activity (Table 5); type: in vivo; settings: post-emergence, 336 h, 14 days after application; for pest or weed control at 70 g/ha: application rate 70 g ai/ha; for pest or weed control at 140 g/ha: application rate 140 g ai/ha
In short: (§1)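 Greenhouse post-emergent assay: seedlings (first/second true leaf) in Metro-Mix 360 were sprayed at 187 L/ha at a top rate plus twofold dilutions down to 1/16×; solvent-blank controls were included. Percent visual injury was read at 14 d.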

[2] = test system: Key Grass and Sedge Weeds as well as Grass Crops; experiment: Post-emergent Test II herbicidal activity (Table 6); type: in vivo; settings: post-emergence, 336 h; for pest or weed control at 70 g/ha: 70 g ai/ha; for pest or weed control at 140 g/ha: 140 g ai/ha
In short: as §1

[3] = ABUTH: velvetleaf (Abutilon theophrasti), read-out: Visual Growth Reduction (%) 14 Days After Application, ABUTH
[4] = AMARE: redroot pigweed (Amaranthus retroflexus), read-out: Visual Growth Reduction (%) 14 Days After Application, AMARE
[5] = BRSNN: oilseed-rape, canola (Brassica napus), read-out: Visual Growth Reduction (%) 14 Days After Application, BRSNN
[6] = CHEAL: lambsquarters (Chenopodium album), read-out: Visual Growth Reduction (%) 14 Days After Application, CHEAL
[7] = EPHHL: wild poinsettia (Euphorbia heterophylla), read-out: Visual Growth Reduction (%) 14 Days After Application, EPHHL
[8] = HELAN: sunflower (Helianthus annuus), read-out: Visual Growth Reduction (%) 14 Days After Application, HELAN
[9] = VIOTR: wild pansy (Viola tricolor), read-out: Visual Growth Reduction (%) 14 Days After Application, VIOTR
[10] = CYPES: yellow nutsedge (Cyperus esculentus), read-out: Visual Growth Reduction (%) 14 Days After Application, CYPES
[11] = DIGSA: crabgrass (Digitaria sanguinalis), read-out: Visual Growth Reduction (%) 14 Days After Application, DIGSA
[12] = ECHCG: barnyardgrass (Echinochloa crus-galli), read-out: Visual Growth Reduction (%) 14 Days After Application, ECHCG
[13] = ORYSA: rice (Oryza sativa), crop, read-out: Visual Growth Reduction (%) 14 Days After Application, ORYSA
[14] = SETFA: giant foxtail (Setaria faberi), read-out: Visual Growth Reduction (%) 14 Days After Application, SETFA
[15] = SORVU: grain sorghum (Sorghum vulgare), read-out: Visual Growth Reduction (%) 14 Days After Application, SORVU
[16] = TRZSS (wheat, Triticum aestivum), crop, read-out: Visual Growth Reduction (%) 14 Days After Application, TRZSS
[17] = ZEAMX: maize, corn (Zea mays), crop, read-out: Visual Growth Reduction (%) 14 Days After Application, ZEAMX

With `N#Cc1ccc(-c2nc(C(=O)O)c(Cl)c(N)c2F)cc1` [Compound 39] the pest or weed control at 70 g/ha [1, 3] was 30 to 44%, the pest or weed control at 140 g/ha [1, 3] was 60 to 74% and the pest or weed control at 70 g/ha [1, 4] was 0 to 29%. For the same molecule, the pest or weed control at 140 g/ha [1, 4] was 0 to 29%, the pest or weed control at 70 g/ha [1, 5] was 0 to 29% and the pest or weed control at 140 g/ha [1, 5] was 30 to 44%. For the same molecule, the pest or weed control at 70 g/ha [1, 6] was 85 to 94%, the pest or weed control at 140 g/ha [1, 6] was 95 to 100% and the pest or weed control at 70 g/ha [1, 7] was 85 to 94%. It also gave a pest or weed control at 140 g/ha [1, 7] of 95 to 100%, a pest or weed control at 70 g/ha [1, 8] of 95 to 100% and a pest or weed control at 140 g/ha [1, 8] of 95 to 100%. It also gave a pest or weed control at 70 g/ha [1, 9] of 30 to 44%, a pest or weed control at 140 g/ha [1, 9] of 30 to 44% and a pest or weed control at 70 g/ha [2, 10] of 60 to 74%. The pest or weed control at 140 g/ha [2, 10] was 75 to 84%, the pest or weed control at 70 g/ha [2, 11] was 30 to 44% and the pest or weed control at 140 g/ha [2, 11] was 45 to 59%. For the same molecule, the pest or weed control at 70 g/ha [2, 12] was 85 to 94%, the pest or weed control at 140 g/ha [2, 12] was 85 to 94% and the pest or weed control at 70 g/ha [2, 13] was 0 to 29%. The pest or weed control at 140 g/ha [2, 13] was 0 to 29%, the pest or weed control at 70 g/ha [2, 14] was 0 to 29% and the pest or weed control at 140 g/ha [2, 14] was 30 to 44%. The pest or weed control at 70 g/ha [2, 15] was 30 to 44%, the pest or weed control at 140 g/ha [2, 15] was 60 to 74% and the pest or weed control at 70 g/ha [2, 16] was 30 to 44%. The pest or weed control at 140 g/ha [2, 16] was 45 to 59%, the pest or weed control at 70 g/ha [2, 17] was 60 to 74% and the pest or weed control at 140 g/ha [2, 17] was 60 to 74%.
